Test results taken from patent US20250295109A1, “UNIVERSAL SYNERGIST FOR INSECT ATTRACTANTS” (North Carolina State University, priority 2022, published 2025).

Test system: Musca domestica
Test: dual choice trapping cage assay with commercial fly trap attractant (STARBAR)
Format: in vivo
Conditions: 24 hours
Source text: FIG. 8A is a schematic drawing showing a design for a dual choice free flight cage trapping assay used to determine the effect of nonanal on the trapping of house flies (Musca domestica) when used in combination with a commercial house fly lure. At the right of the drawing is shown a schematic of a 30 centimeter (cm) by 30 cm cage containing two commercial house fly traps (Trap 1 and Trap 2), each including a plastic cup fitted with a transparent lid that has an opening for the flies. An enlarged view of an individual trap is shown to the left side of the drawing. Inside each trap, at the bottom, is placed a commercial fly attractant as a lure. In addition, each trap is fitted with a 1.5 mL vial containing either 50 microliters (μL) dimethyl sulfoxide (DMSO) or 50 μL of a solution of nonanal in DMSO. For each experiment, 20 house flies are used.
The attraction of fed Musca domestica males and females to a commercial lure and a laboratory-built trap to which various amounts of nonanal were added is shown in […]. […] After 24 hours, house flies in both traps were counted. […]
The other trap in the dual choice trapping assay contained 50 mL of the commercial fly trap attractant lure plus a 50 μl of DMSO only. […] After 24 hours, flies in both traps were counted.

For `CCCCCCCCC=O` [nonanal], the “house flies trapped, nonanal trap versus trap without nonanal” value (increasing amount of nonanal in 50 μl DMSO with 50 mL commercial fly trap attractant lure, other trap lure plus DMSO, fed flies) was “more house flies are trapped” and the “attraction of house flies to commercial fly trap attractant lure at too much nonanal” value (too much nonanal in 50 μl DMSO with 50 mL commercial fly trap attractant lure) was “interferes with attraction of flies to the commercial fly trap attractant lure”.
